Measurements: US20110212954A1, “ALPHA-LIPOIC ACID DERIVATIVES AND THEIR USE IN DRUG PREPARATION” (priority 2008, published 2011)

Tests used:
HepG2 cells [1] = test: Variation in NADH levels (total NADH/NAD ratio), spectrophotometric kit; assay type: cell-based, human; conditions: 72 hours
Excerpt: (§1) Although it is known that under hyperglycemic conditions α-LA induces AMPK activation in hepatic cells, the molecular mechanisms responsible for this biochemical process are not yet known. As envisaged in the description, the inventors of the present invention have advanced the hypothesis that AMPK activation by α-LA is the result of changes in the amount of NADH and NADHP present in cells, due to the interference of α-LA and/or its analogous derivatives in the oxidation-reduction processes. To verify this hypothesis, use was made of commercial kits (by Valter Occhiena) able to analyze the variations in the cellular amounts of NAD(P)H relative to total NAD(P), in the presence of increasing concentrations of the compounds under analysis (total NAD=NADH+NAD^+; total NADP=NADPH+NADP^+).

HepG2 cells [2] = test: Variation in NADPH levels (total NADPH/NADP ratio), spectrophotometric kit; assay type: cell-based, human; conditions: HepG2 cells, 5, 10, 100 and 500 μM, 72 hours
Excerpt: as §1

[3] = Pharmacokinetic study in rats after oral administration of a single dose, HPLC-MS of plasma; assay type: in vivo; conditions: rat, single dose 48.5 μmol/kg
Description: The bioavailability of some compounds synthesized (Examples 1a, 2, 2a, 3, 3a, 10, 15a, 16a and 24) was studied in rats after oral administration of a single dose (48.5 μmol/kg) and compared with the reference (R)- or (RS)-α-LA.
Each treatment was carried out on groups of 6 male rats (Sprague-Dawley SD rat) per compound. At regular times, blood withdrawals were carried out for the measurement by HPLC-MS of the concentration of plasmatic α-LA (FIGS. 5, 7, 9) and of the residual compound administered (FIGS. 6, 8).

diabetic rats = conditions: diabetes type II models, high doses of α-LA (30 mg/kg in rats); cited from earlier work
[4] = in man, cited from earlier work
[5] = test system: human hepatocarcinoma cells (HepG2 cells); test: Evaluation of cell viability (ATPlite luminometric assay) and cell proliferation; assay type: cell-based; conditions: 1 mM
Description: Dose-dependent concentration studies of the synthesized compounds were carried out and compared with the effects of alpha-lipoic acid, defined as reference standard, on human hepatocarcinoma cells (HepG2 cells) with the aim of evaluating their effects on cell viability.
Analysis by optical microscope enabled any morphological changes and accumulation of lipid vesicles to be determined as well as to evaluate cell proliferation or arrest.
A luminometric assay (ATPlite, Perkin Elmer), based on the production of light caused by a reaction with the intracellular ATP of viable cells, enabled the compounds to be classified on the basis of their viability index. In this respect, the signal detected by the luminometer is proportional to the number of viable cells. […]

SMILES | NADH levels relative to control at 5 μM (FIG. 10) (HepG2 cells [1]; 5 μM) | effect on NADPH levels (FIG. 11) (HepG2 cells [2]) | released alpha-lipoic acid and compound itself in plasma, any withdrawal time [3] | glycemia in diabetic rats (diabetic rats) | bioavailability after oral administration ([4]; oral) | plasma half life (t1/2) [4] [min] | amount of NADH at high concentrations (FIG. 10) (HepG2 cells [1]; 100 and 500 μm) | confluence reached by HepG2 cells (arrest of cell proliferation) [5]
O=C(CCCCC1CCSS1)NCCCN1CCOCC1 (racemic) [Example 3a, 5-[1,2]dithiolan-3-yl-pentanoic acid(3-morpholin-4-yl-propyl)-amide] | lower NADH levels than the control | influenced NADPH levels, in a dose dependent manner | neither released alpha-lipoic acid nor the compound itself was detected | – | – | – | – | –
O=C(O)CCCC[C@@H]1CCSS1 (racemic) [α-LA, 1,2-dithiolane-3-pentanoic acid] | – | – | – | reduces glycemia | less than 30% | 28 | – | –
O=C(O)CCCC[C@@H]1CCSS1 [(R)-α-LA, (R)-alpha-lipoic acid, reference compound] | – | influenced NADPH levels, in a dose dependent manner | – | – | – | – | decrease in NADH levels | 60-70%
